Source: patent publication US12502403B2, “Tafoxiparin for the treatment of preeclampsia” (DILAFOR AB, priority 2020, dated 2025)
One block for each substance: values may come before it.

Tests used:
[1] = test system: subcutaneous arteries; assay: Myograph: endothelin 1 (ET-1)-induced contraction of subcutaneous artery segments after pre-treatment and placental vesicles; type: cell-based, human; conditions: for contraction to ET-1 / AUC / AUC/AUC (PE) % / % contractile change: Example 5, 10 μg/ml pre-incubation then PE vesicles; for AUC / AUC/AUC (PE) % / % contractile change: ET-1, pooled from five patients; for % contractile change: vs PE; for reduction of contraction induced with ET-1: vs PE vesicles only; for Emax [%] ET-1: relative to 60 mM potassium contraction; for logEC50 ET-1: EC50 of agonist ET-1; for effect on ET-1 mediated contraction with control P vesicles: vs vesicles only
Description: (§1) In a myograph model, arteries from subcutaneous tissue of women undergoing Caesarian section were used. The contractile effect of arteries comprising vesicles derived from placentas from pre-eclamptic women was compared with the contractile effect of arteries comprising vesicles derived from placentas from non-preeclamptic women. […] The Low Molecular Weight Heparin (LMWH) tinzaparin (Innohep®, Leo Pharma Denmark) was used as a comparator.
(§2) Subcutaneous arteries were removed from the subcutaneous fat of the abdomen during Caesarean section and immediately put in cold DMEM-medium. Arteries were dissected in cold Na-Krebs buffer at a pH of 7.3-7.4 and cut into ring segments with a length of 1-2 mm as previously shown. The sections were mounted on two 40 μm-diameter wires and connected to a device sensitive to vascular tension. The stretching force property of the arteries were recorded with Mulvany-Halpern myographs. The mounted arterial segments were immersed into temperature-controlled (+37° C.) tissue baths containing bicarbonate-based buffer solution gassed with carbogen to obtain a pH of 7.3-7.4. Each segment was stretched to 90% of the normal internal circumference, which is the size each segment would have in a transmural pressure of 100 mm Hg. The contractile capacity of each artery segment was checked by exposure to 60 mM KCl buffer solution twice or three times to study viability. After each the bath was washed and the tone returned to baseline. When stable, different molecules or receptor agonists are added to the baths in concentration-dependent manner to observe the vasomotor responses of the vessels.
(§3) The artery segments were studied by exposure to angiotensin II or endothelin 1 in cumulative concentrations of the agonists. […] In some experiments, 30 minutes after adding vesicles to the tissue baths concentration-contraction curves were obtained by cumulative application of angiotensin II (angiotensin 1 and 2 receptor agonist, concentration range 10^−12 to 10^−6 M). After washing and the tension returning to base line, agonists are added. After washing and the tension returning to base line endothelin 1 was added (endothelin A and B receptor agonist, concentration range 10^−11 to 10^−7 M).
(§4) After 30 minutes, non-preeclampsia vesicles as control (P) or pre-eclampsia (PE) vesicles were added at a concentration of 200 μg (protein concentration 40 μg/mL).
(§5) 30 minutes after adding vesicles to the tissue baths, concentration-contraction curves were obtained by cumulative application of angiotensin II (A9525 Sigma-Aldrich Angiotensin II human, powder CAS Number 4474-91-3 dissolved in sodium chloride to a concentration of 10^−3 M) and used in the concentration range 10^−12 to 10^−6 M. After wash-out and the tension had returned to base line, ET-1 (ALX-155-001, Enzo Life Sciences) was added and recorded (endothelin A and B receptor agonist, concentration range 10^−11 to 10^−7 M).

[2] = test system: subcutaneous arteries; assay: Myograph: endothelial function (relaxation to substance P after potassium pre-contraction); type: cell-based, human
Description: In some experiments the endothelial function was tested by pre-contraction the vessels with 30 mM potassium buffer, giving a stable tone and endothelium function evaluated by exposure to substance P (10^−6 or 10^−5 M).

[3] = test system: subcutaneous arteries; assay: Myograph: angiotensin II-induced contraction of subcutaneous artery segments after pre-treatment and placental vesicles; conditions: for contractile effect of AngII in the presence of PE: 10 μg/ml pre-incubation; for AUC / AUC/AUC (PE) % / % contractile change: AngII; for % contractile change: vs PE; for Emax [%] AngII: relative to 60 mM potassium contraction; for logEC50 AngII: EC50 of agonist AngII; for effect on Ang II mediated contraction with control P vesicles: vs vesicles only;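 for all read-outs here: wire myograph tension of human abdominal subcutaneous artery rings from Caesarean deliveries at 37 °C, 30 min pre-treatment, vesicles 30 min, then cumulative angiotensin II 10^−12 to 10^−6 M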
Description: as §1, §2, §3, §4, §5

[4] = patient 14, 10 μg/ml before PE-vesicles
[5] = patient 14, 10 μg/ml pre-treatment then PE vesicles
[6] = patient 14, drug only, no vesicles
[7] = patient 14, pre-treatment then P vesicles
[8] = patient 14, pre-treatment then PE vesicles
[9] = patient 14, control (P) vesicles
[10] = Example 3, 10 μg/ml pre-incubation then PE vesicles, pooled from four patients
[11] = Example 4, 100 μg/ml pre-incubation then PE vesicles
[12] = Example 4, 100 μg/ml pre-incubation then PE vesicles, pooled from five patients
[13] = patient 14, 10 μg/ml before PE-vesicles, vs PE vesicles only
[14] = patient 13, 10 μg/ml pre-treatment then PE vesicles
[15] = patient 13, drug only, no vesicles
[16] = patient 13, pre-treatment then P vesicles
[17] = patient 13, control (P) vesicles

Substance: tafoxiparin
contraction to ET-1 [1]: significantly lower contraction | AUC [1]: 193.1 | AUC/AUC (PE) % [1]: 61.8% | % contractile change [1]: −38% | reduction of contraction induced with ET-1 [1, 4]: 56% | Emax [%] ET-1 [1, 5]: 77% | logEC50 ET-1 [1, 6]: 9.9 | logEC50 ET-1 [1, 7]: 7.7 | logEC50 ET-1 [1, 8]: 6.9 | effect on ET-1 mediated contraction with control P vesicles [1, 9]: little or no effect | Emax [%] ET-1 [1, 6]: 180% | Emax [%] ET-1 [1, 7]: 105% | Endothelial function [%] [2, 6]: 85% | Endothelial function [%] [2, 7]: 22% | Endothelial function [%] [2, 8]: 67% | contractile effect of AngII in the presence of PE ([3]; Example 3): affect the contractile effect of AngII | AUC [3, 10]: 160.5 | AUC/AUC (PE) % [3, 10]: 68.5% | % contractile change [3, 10]: −31.5% | AngII induced contraction [3, 11]: significantly decreased | AUC [3, 12]: 306.5 | AUC/AUC (PE) % [3, 12]: 70.8% | % contractile change [3, 12]: −29% | reduction of contraction induced with angiotensin II [3, 13]: 79% | Emax [%] AngII [3, 5]: 27% | logEC50 AngII [3, 6]: 10.2 | logEC50 AngII [3, 7]: 9.8 | logEC50 AngII [3, 8]: 9.4 | effect on Ang II mediated contraction with control P vesicles [3, 9]: little or no effect | Emax [%] AngII [3, 6]: 101% | Emax [%] AngII [3, 7]: 73%

reduction of log EC50 (ET-1) ([1]; patient 13, 10 μg/ml before PE-vesicles, extrapolated): 35%
Substance: tinzaparin
contraction to ET-1 [1]: significantly lower contraction | AUC [1]: 259.5 | AUC/AUC (PE) % [1]: 83.1% | % contractile change [1]: −17% | contraction induced with ET-1 (the Emax) compared with PE vesicles only ([1]; patient 13, 10 μg/ml before PE-vesicles): the same | Emax [%] ET-1 [1, 14]: 143% | logEC50 ET-1 [1, 15]: 8.5 | logEC50 ET-1 [1, 16]: 8.8 | logEC50 ET-1 ([1]; patient 13, pre-treatment then PE vesicles (extrapolated)): 5.7 | effect on contraction in the presence of control vesicles (ET-1) [1, 17]: did not appear to have any reducing effect | Emax [%] ET-1 [1, 15]: 144% | Emax [%] ET-1 [1, 16]: 166% | reduction of contraction induced with ET-1 [1, 4]: 15% | Emax [%] ET-1 [1, 5]: 147% | logEC50 ET-1 [1, 7]: 9.4 | logEC50 ET-1 [1, 8]: 9.9 | effect on ET-1 mediated contraction with control P vesicles [1, 9]: increased contraction | Emax [%] ET-1 [1, 7]: 197% | Endothelial function [%] [2, 15]: 96% | Endothelial function [%] ([2]; patient 13, pre-treatment then PE vesicles): 119.95% | Endothelial function [%] ([2]; patient 13, pre-treatment then non-preeclampsia (P) vesicles): 69.11% | Endothelial function [%] [2, 7]: 22% | Endothelial function [%] [2, 8]: 1% | contractile effect of AngII in the presence of PE ([3]; Example 3): affect the contractile response of AngII | AUC [3, 10]: 170.5 | AUC/AUC (PE) % [3, 10]: 72.7% | % contractile change [3, 10]: −27.3% | AngII induced contraction [3, 11]: significantly decreased | AUC [3, 12]: 299.6 | AUC/AUC (PE) % [3, 12]: 69.3% | % contractile change [3, 12]: −31% | reduction of maximum contraction induced by angiotensin II ([3]; patient 13, 10 μg/ml before PE-vesicles, vs PE vesicles only): 23% | Emax [%] AngII [3, 14]: 75% | logEC50 AngII [3, 16]: 10.8 | effect on contraction in the presence of control vesicles (AngII) [3, 17]: did not appear to have any reducing effect | Emax [%] AngII [3, 15]: 69% | Emax [%] AngII ([3]; patient 13, pre-treatment then P (non-PE) vesicles): 103% | reduction of contraction induced with angiotensin II [3, 13]: 14% | Emax [%] AngII [3, 5]: 109% | logEC50 AngII [3, 7]: 10.0 | logEC50 AngII [3, 8]: 10.0 | effect on Ang II mediated contraction with control P vesicles [3, 9]: increased contraction | Emax [%] AngII [3, 7]: 135%
